In general, melting point refers to the temperature of the solid-liquid transition. The IC50 is the concentration needed to halve the response being measured. Read a low IC50 as greater potency. One may read the inhibition as the relative decrease from the control value, in per cent.

The source of these data is patent US7563796B2, “Diphenylimidazopyrimidines as inhibitors of β-secretase” (Wyeth, priority 2005, dated 2009).

Each structure is given as a SMILES string. Where a name gives a salt, the structure may show the parent alone.

For one series, the target named is human BACE1 (Homo sapiens, UniProt P56817). Kind of series: Fluorescent kinetic assay, BACE1 inhibition (substrate WABC-6 cleavage). Type of series: biochemical. The note with it: for IC50: 10 nM enzyme, 25 μM substrate WABC-6, pH 4.5, room temperature; for inhibition at 25 µM: read-out: BACE1 % inhibition at 25 μM, at 25 μM inhibitor. How it is done:
Evaluation of BACE-1 Binding Affinity of Test Compounds
1. Fluorescent Kinetic Assays
Dilution and mixing steps: total reaction volume: 100 μL
100 μM substrate dilution in 1X PBS was prepared, and
Fluorescence Readings: Readings at λex 320 nm and λem 420 nm are taken every 40 sec for 30 min at room temperature and the linear slope for substrate cleavage rate (vi) determined.

Chain of human BACE1 (P56817 46-501): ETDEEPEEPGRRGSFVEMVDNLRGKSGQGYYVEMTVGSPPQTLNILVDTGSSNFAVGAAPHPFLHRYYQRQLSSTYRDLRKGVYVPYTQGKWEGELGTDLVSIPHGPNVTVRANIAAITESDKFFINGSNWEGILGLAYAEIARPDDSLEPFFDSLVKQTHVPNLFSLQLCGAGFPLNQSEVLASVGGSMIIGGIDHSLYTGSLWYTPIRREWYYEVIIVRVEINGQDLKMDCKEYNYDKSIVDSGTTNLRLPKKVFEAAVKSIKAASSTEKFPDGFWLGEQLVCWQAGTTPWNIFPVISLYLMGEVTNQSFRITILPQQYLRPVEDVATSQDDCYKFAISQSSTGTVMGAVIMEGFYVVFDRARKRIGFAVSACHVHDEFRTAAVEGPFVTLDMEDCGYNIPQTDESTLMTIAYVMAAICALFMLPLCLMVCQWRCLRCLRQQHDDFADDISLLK

The compound `CCC(=O)Nc1cccc(C2(c3ccc(OC(F)(F)F)cc3)N=C(N)N3CCCN=C32)c1` (stereo not shown) (as salt: hydrochloride) [Example 16, N-{3-[6-Amino-8-(4-trifluoromethoxy-phenyl)-2,3,4,8-tetrahydroimidazo[1,5-a]pyrimidin-8-yl]-phenyl}-propionamide hydrochloride] showed a melting point of 148 to 150 °C.
For the compound `CC(C)(C)c1ccc(C2(c3ccccc3)N=C(N)N3CCCN=C32)cc1` (stereo not shown) [Example 1, 8-(4-tert-Butylphenyl)-8-phenyl-2,3,4,8-tetrahydroimidazol[1,5-a]pyrimidin-6-amine], the melting point was 139 °C. Moreover, the IC50 at human BACE1 worked out at 30 µM.
The like results for `NC1=NC(c2ccccc2)(c2cccc(Cc3ccccc3)c2)C2=NCCCN12` (stereo not shown) [Example 2, 8-(3-Benzylphenyl)-8-phenyl-2,3,4,8-tetrahydroimidazol[1,5-a]pyrimidin-6-amine] were, in that order, 80 °C and 5.3 µM.
With `NC1=NC(c2ccccc2)(c2cccc(Oc3ccc(F)cc3)c2)C2=NCCCN12` (stereo not shown) [Example 3, 8-[3-(4-Fluorophenoxy)phenyl]-8-phenyl-2,3,4,8-tetrahydroimidazo[1,5-a]pyrimidin-6-amine], the melting point is 165 °C. The compound further showed an IC50 on human BACE1 of 4.7 µM.
For the compound `COc1ccc(Cc2cccc(C3(c4ccccc4)N=C(N)N4CCCN=C43)c2)cc1` (stereo not shown) [Example 4, 8-[3-(4-Methoxybenzyl)phenyl]-8-phenyl-2,3,4,8-tetrahydroimidazo[1,5-a]pyrimidin-6-amine], the melting point is 132 °C. Half-maximal inhibition against human BACE1 (IC50) required 7.1 µM.
Turning to `NC1=NC(c2ccccc2)(c2cccc(Cc3ccc(F)cc3)c2)C2=NCCCN12` (stereo not shown) [Example 5, 8-[3-(4-Fluorobenzyl)phenyl]-8-phenyl-2,3,4,8-tetrahydroimidazo[1,5-a]pyrimidin-6-amine], the melting point was 152 °C. The compound further showed a concentration for half-maximal inhibition (IC50) at human BACE1 of 8.2 µM.
Regarding `NC1=NC(c2ccccc2)(c2cccc(C(F)(F)F)c2)C2=NCCCN12` (stereo not shown) [Example 6, 8-Phenyl-8-[3-(trifluoromethyl)phenyl]-2,3,4,8-tetrahydroimidazo[1,5-a]pyrimidin-6-amine], the inhibition at 25 µM on human BACE1 turned out to be 48%.
In the case of `COc1cccc(C2(c3ccccc3)N=C(N)N3CCCN=C32)c1` (stereo not shown) [Example 7, 8-(3-Methoxyphenyl)-8-phenyl-2,3,4,8-tetrahydroimidazo[1,5-a]pyrimidin-6-amine], the inhibition at 25 µM on human BACE1 worked out at 49%.
Compound `CCCOc1cccc(C2(c3ccc(OC)c(C)c3)N=C(N)N3CCN=C32)c1` (stereo not shown) [Example 8, 7-(4-Methoxy-3-methylphenyl)-7-(3-propoxyphenyl)-2,7-dihydro-3H-imidazo[1.5-a]imidazol-5-amine] showed an IC50 against human BACE1 of 0.4 µM.
Still for that read-out and setting: under `CCCOc1cccc(C2(c3ccc(OC)c(C)c3)N=C(N)N3CCCN=C32)c1` (stereo not shown) [Example 9, 8-(4-Methoxy-3-methylphenyl)-8-(3-propoxyphenyl)-2,3,4,8-tetrahydroimidazo[1,5-a]pyrimidin-6-amine] stands 0.3 µM; under `CCCOc1cccc(C2(c3ccc(OC)c(C)c3)N=C(N)N3CC(C)(C)CN=C32)c1` (stereo not shown) [Example 10, 8-(4-Methoxy-3-methylphenyl)-3,3-dimethyl-8-(3-propoxyphenyl)-2,3,4,8-tetrahydroimidazo[1,5-a]pyrimidin-6-amine], 1.1 µM.
As for `NC1=NC(c2ccc(OC(F)(F)F)cc2)(c2cccc(CCC3CC3)c2)C2=NCCCN12` (stereo not shown) [Example 12, 8-[3-(2-Cyclopropyl-ethyl)-phenyl]-8-(4-trifluoromethoxy-phenyl)-2,3,4,8-tetrahydro-imidazo[1,5-a]pyrimidin-6-ylamine], the melting point lay in the range of 65 to 77 °C. The compound further had an IC50 against human BACE1 of 0.21 µM.
Turning to `C=CCc1cccc(C2(c3ccc(OC(F)(F)F)cc3)N=C(N)N3CCCN=C32)c1` (stereo not shown) [Example 13, 8-(3-Allylphenyl)-8-(4-trifluoromethoxyphenyl)-2,3,4,8-tetrahydro-imidazo[1,5-a]pyrimidin-6-ylamine], the melting point was 89 to 111 °C. Moreover, on human BACE1 (read-out: BACE1 % inhibition at 5 μM, at 5 μM inhibitor), the inhibition at 5 µM came out at 53%.
In the case of `CCCc1cccc(C2(c3ccc(OC(F)(F)F)cc3)N=C(N)N3CCCN=C32)c1` (stereo not shown) [Example 14, 8-(3-Propyl-phenyl)-8-(4-trifluoromethoxy-phenyl)-2,3,4,8-tetrahydro-imidazo[1,5-a]pyrimidin-6-ylamine], the melting point fell in the range of 75 to 79 °C. On human BACE1, this compound yielded an IC50 of 1.43 µM.
As for `CCNC(=O)c1cccc(C2(c3ccc(OC(F)(F)F)cc3)N=C(N)N3CCCN=C32)c1` (stereo not shown) [Example 15, 3-[6-Amino-8-(4-trifluoromethoxy-phenyl)-2,3,4,8-tetrahydroimidazo[1,5-a]pyrimidin-8-yl]-N-ethyl-benzamide], the melting point was in the range of 129 to 136 °C. Also, at human BACE1 (read-out: BACE1 % inhibition at 0.5 μM, at 0.5 μM inhibitor), the inhibition at 0.5 µM worked out at 40%.
With `CCC(=O)Nc1cccc(C2(c3ccc(OC(F)(F)F)cc3)N=C(N)N3CCCN=C32)c1` (stereo not shown) [Example 16, N-{3-[6-Amino-8-(4-trifluoromethoxy-phenyl)-2,3,4,8-tetrahydroimidazo[1,5-a]pyrimidin-8-yl]-phenyl}-propionamide hydrochloride], at human BACE1 (read-out: BACE1 % inhibition at […], at 2.5 μM inhibitor), the inhibition at […] came to 43%.
